How the values were obtained:
[1] = test system: carrageenin-induced paw oedema; test: carrageenin-induced paw oedema test in the rat; format: in vivo; conditions: day 0
From the text: The objective of this study is to assess the effect of complexes or compositions of the invention in the carrageenin-induced paw oedema test in the rat, a commonly employed method for screening and evaluation of antiinflammatory drugs. Carrageenin, the phlogistic agent of choice for testing antiinflammatory drugs, is a mucopolysaccharide derived from Irish sea moss, Chondrus. Ibuprofen is used as a positive control.
The test article is the complex of the invention prepared according to example 105 (Compound 105 in the following). Compound 105 and Ibuprofen are obtained from Astion A/S, Denmark.
The test article is dissolved in milli-Q water. 0.9% NaCl solution is used as vehicle.
The study is performed in male SPF Sprague Dawley rats of the stock Mol:SPRD from M & B A/S, Tornbjergvej 40, DK-4623 Lille Skensved, Denmark. At start of the acclimatisation period the rats are in the weight range of 80-100 g.
All doses of Compound 105 are administered intraperitoneally in volumes of 20 ml per kg body weight, once daily on day −2 and −1 to groups 2,3 and 4 only and on day 0 to groups 2-6, 0-5 minutes before injection of carrageenin into the foot on day 0. Ibuprofen and vehicle are administered orally by gavage in volumes of 20 ml/kg body weight on day 0, 0-5 minutes before injection of the carrageenin into the foot.
Carrageenin (from Sigma) is prepared as a 1% suspension in sterile 0.9% NaCl-solution. A volume of 0.1 ml is injected through a 25-gauge needle into the plantar tissue of the right hind paw of the rats within 5 minutes after treatment with the test articles.
Immediately before the dosing and carrageenin injection and three and five hours later the foot volume is measured using a plethysmometer LE 7500 from Letica Scientific Instruments, Spain.

[2] = test system: tendonitis of the arm; osteoarthritis of the hips and knees; knee injury involving cartilage damage; test: small preliminary clinical investigation, three persons, oral aqueous solution of compound 105; format: in vivo, human; conditions: person, normal doses, patient history
Procedure: In a small preliminary clinical investigation three persons administered a pharmaceutical composition according to the invention. The composition was an aqueous solution (100 mg/ml) of compound 105, which is the complex of the invention prepared according to example 105.
One patient was […] and had suffered from tendonitis of the arm for eight months. The symptoms were chronic muscle pain and some degree of immobility of the arm.
The composition of the invention was administered orally corresponding to 3000 mg compound 105 twice a day. […] After a further week of treatment the treatment was discontinued.
Another patient was […] and had suffered from osteoarthritis of the hips and knees for ten years. For some periods the patient had been treated with celecoxib, paracetamol and/or codein to control the pain. The main symptoms were pain and immobility of the joints. The composition of the invention was administered orally corresponding to 3000 mg compound 105 twice a day.
The symptoms were pain and immobility of the knee joint. The composition of the invention was administered orally corresponding to 3000 mg compound 105 twice a day. […] During the next two days the symptoms started reappearing.

Q: Which results are given for `CC(C)Cc1ccc(C(C)C(=O)O)cc1` (centres unmarked) [Ibuprofen]?
A: inhibition of the paw oedema ([1]; after 5 hours, 50 mg/kg orally by gavage): 77%; inhibition of the paw oedema ([1]; after 5 hours, 150 mg/kg orally by gavage): 97%; inhibition of the paw oedema ([1]; after three hours, 50 mg/kg orally by gavage): 37%; inhibition of the paw oedema ([1]; after three hours, 150 mg/kg orally by gavage): 57%; symptomatic effect of earlier treatment [2]: limited symptomatic effect
